In patent US20150017203A1, “COMBINATION PRODUCT FOR TREATING EXCESS WEIGHT AND/OR FOR IMPROVING THE FIGURE” (INSTITUT NATIONAL DE LA RECHERCHE AGRONOMIQUE - INRA, priority 2012, published 2015):

What was measured:
[1] = Mice weight under high-lipid diet, 3-week pharmaco-nutritional regimen; type: in vivo; conditions: after 3-week regimen; vs control regimen
Experimental: (§1) 100 male mice C57 Black 6/J aged 5 weeks (January, France) were accommodated in individual cages in the pet center of the INRA center, Theix, in thermoregulated premises (20-22° C.) and submitted to alternating 12 hour-cycles of light and darkness. After a week of acclimatization under a <<control regimen>> (D12450B, Research Diet, USA), 20 mice continued this regimen for 11 weeks. The other 80 mice were fed with a ? high-lipid regimen ? (HL) (D12451, Research Diet, USA) for 8 weeks. The total calorie intake, in percentages, provided for both the <> and HL regimens 20% proteins and respectively, 70% and 35% carbohydrates and 10% and 45% lipids. […] The mice weight was measured every 2 weeks.

[2] = Body composition measurement through Echo MRI (body fat, lean body mass); type: in vivo, mice; conditions: for Total body fat vs control regimen (Echo MRI): day 80, vs mice under control regimen; for Body fat: difference with high-lipid diet alone (HL), mice, 3 weeks
Experimental: as §1
Body fat and lean body mass of awake mice after 15 h fasting were quantified using nuclear magnetic resonance (Echo MRI, Houston, USA) at day 80 of the experiment.

[3] = Organ and tissue weights at sacrifice (peri-epididymal adipose tissue, leg muscles, liver); type: in vivo; conditions: vs mice under control regimen
Experimental: as §1
(§2) Prior to being sacrificed, mice after 15 h fasting were anesthetized through barbital intraperitoneal injection (1.5 μl/g). Blood was collected in EDTA-containing specimen collectors before being centrifuged (12000 rpm, 4 min, room temperature). Plasma was thereafter collected, distributed in aliquots and frozen in liquid nitrogen, then stored at −80° C. The adipose peri-epididymal tissue, liver and leg triceps muscle (gastrocnemius muscle), tibialis and quadriceps muscles were weighted, frozen in liquid nitrogen, then stored at −80° C.

[4] = Plasma dosages (non-esterified fatty acids, triglycerides, cholesterol, glucose); type: in vivo, mice; conditions: for Cholesterolemia compared to control mice: ANOVA p=0.01
Experimental: as §2, with “100 male mice C57 Black 6/J aged 5 weeks (January, France) were accommodated in individual cages in the pet center of the INRA center, Theix, in thermoregulated premises (20-22° C.) and submitted to alternating 12 hour-cycles of light and darkness. […] The mice weight was measured every 2 weeks. Prior” for “Prior”

[5] = Glucose tolerance measurement (ipGTT test); type: in vivo, mice; conditions: for Glucose tolerance: difference with high-lipid diet alone (HL), mice, 3 weeks; for Glucose tolerance compared to the control regimen: ipGTT, glucose 2 mg/g i.p., vs control
Experimental: as §1
(§3) After a 3-week pharmaco-nutritional regimen, measurements of the insulin sensitivity and glucose tolerance were conducted respectively on 10 mice of each group after a fasting night. Insulin sensitivity measurement: basal glycemia was evaluated using a glucose meter (Glucotouch, Lifescan, USA) on blood droplets collected from the tail. An insulin dose of 0.75 mU/g of weight was administered through intraperitoneal injection and glycemia was evaluated 15, 30, 45, 60 and 120 minutes post injection. Glucose tolerance measurement: a glucose dose (2 mg/g of weight) was administered through intraperitoneal injection. Glycemia was evaluated as for the insulin sensitivity test before and 15, 30, 60 and 120 minutes post injection.
Glucose tolerance measurement (ipGTT test): glucose tolerance is defined as the ability for a mouse to normalize its glycemia when injecting glucose. It is evaluated through the calculation of the area under the curve of the glycemia evolution after an injection of glucose.

[6] = Insulin sensitivity measurement (ipITT test); type: in vivo, mice; conditions: for Insulin sensitivity: difference with high-lipid diet alone (HL), mice, 3 weeks
Experimental: as §1, §3

[7] = taking statin in the long term; cited from earlier work
[8] = conclusions of several clinical assays; cited from earlier work
[9] = difference with high-lipid diet alone (HL), mice, 3 weeks

Row | Compound | Mice weight as compared to the controls [1] | Total body fat vs control regimen (Echo MRI) [2] | Body fat [2] [%] | Weight of peri-epididymal adipose tissue vs control regimen [3] | Triglyceridemia compared to control mice ([4]; vs control mice) | Cholesterolemia compared to control mice ([4]; vs control mice) | Glucose tolerance [5] | Glucose tolerance compared to the control regimen [5] | Insulin sensitivity [6] | Influence on body fat [7] | Development of type 2 diabetes [8] | Plasma levels: Non esterified fatty acids [4, 9] [%] | Plasma levels: Triglycerides [4, 9] [%] | Plasma levels of non-esterified fatty acids compared to control mice ([4]; vs control mice) | Insulin sensitivity compared to controls ([6]; ipITT, insulin 0.75 mU/g i.p., vs control)
1 | CC(C)c1c(C(=O)Nc2ccccc2)c(-c2ccccc2)c(-c2ccc(F)cc2)n1CC[C@@H](O)C[C@@H](O)CC(=O)O [Statin, Atorvastatin] | significantly higher | +87% | −13 | doubled | bring triglyceridemia back to the level of that obtained in control mice | significant increase in cholesterolemia | +11% | significant reduction of glucose tolerance | +31% | has not any positive influence on body fat | would promote the development of type 2 diabetes |  |  |  | 
2 | CC(C)c1nc(N(C)S(C)(=O)=O)nc(-c2ccc(F)cc2)c1/C=C/[C@@H](O)C[C@@H](O)CC(=O)O [rosuvastatin] |  |  |  |  |  |  |  |  |  |  | would promote the development of type 2 diabetes |  |  |  | 
3 | NC(=O)NCCC[C@H](N)C(=O)O [L-citrulline, L-Citrulline] | significantly higher | +100% | −7 | doubled | bring triglyceridemia back to the level of that obtained in control mice | significant increase in cholesterolemia | +7% | significant reduction of glucose tolerance | +5% |  |  | −24 | −15 | at a similar level compared to the control mice | tend to be less sensitive to insulin
